{
  "source": "patent US12077503B2",
  "about": "“Substituted cyclic amides and their use as herbicides” (FMC CORPORATION, priority 2015, dated 2024)",
  "assay_type_in_all_cases": "in vivo",
  "key": {"[1]": {"tested_on": "barnyardgrass (Echinochloa crus-galli)", "test": "Test A preemergence", "summary_of_the_method": "(§1)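 Ratings of 0 (no effect) to 100 (complete control) come from visual comparison with untreated controls roughly 10 d after treatment. Test chemicals, formulated in a non-phytotoxic solvent mixture with surfactant, were applied either as a preemergence directed soil spray on seeded soil or postemergence to one- to two-leaf plants 2 to 10 cm tall.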"}, "Kochia (Kochia scoparia) [2]": {"tested_on": "Kochia (Kochia scoparia)", "test": "Test A preemergence", "summary_of_the_method": "as §1"}, "[3]": {"tested_on": "ragweed (common ragweed, Ambrosia elatior)", "test": "Test A preemergence", "summary_of_the_method": "as §1"}, "[4]": {"tested_on": "giant foxtail (Setaria faberii)", "test": "Test A preemergence", "summary_of_the_method": "as §1"}, "[5]": {"tested_on": "pigweed (Amaranthus retroflexus)", "test": "Test A preemergence"}, "[6]": {"tested_on": "ryegrass, Italian (Italian ryegrass, Lolium multiflorum)", "test": "Test A preemergence", "summary_of_the_method": "as §1"}, "[7]": {"tested_on": "barnyardgrass (Echinochloa crus-galli)", "test": "Test B flooded paddy test", "conditions": "Flood, 250 g ai/ha; 0 to 100 scale where 0 is no effect and 100 is complete control; 13 to 15 d", "summary_of_the_method": "(§2)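 Percent control, visually estimated after 13–15 d in the greenhouse on a 0–100 basis, compares treated pots with untreated ones; compound was put into paddy water 3 cm above the soil when plants had two leaves.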"}, "[8]": {"tested_on": "sedge, umbrella (small-flower umbrella sedge, Cyperus difformis)", "test": "Test B flooded paddy test", "conditions": "Flood, 250 g ai/ha; 0 to 100 scale where 0 is no effect and 100 is complete control; 13 to 15 d", "summary_of_the_method": "as §2"}, "[9]": {"tested_on": "ducksalad (Heteranthera limosa)", "test": "Test B flooded paddy test", "conditions": "Flood, 250 g ai/ha; 0 to 100 scale where 0 is no effect and 100 is complete control; 13 to 15 d", "summary_of_the_method": "as §2"}, "rice (Oryra sativa)": {"tested_on": "rice (Oryra sativa)", "test": "Test B flooded paddy test", "conditions": "Flood, 250 g ai/ha; 0 to 100 scale where 0 is no effect and 100 is complete control; 13 to 15 d", "summary_of_the_method": "as §2"}, "[10]": {"tested_on": "barnyardgrass (Echinochloa crus-galli)", "test": "Test A postemergence", "conditions": "postemergence, 0 to 100 scale (0 no effect, 100 complete control)", "summary_of_the_method": "as §1"}, "Kochia (Kochia scoparia) [11]": {"tested_on": "Kochia (Kochia scoparia)", "test": "Test A postemergence", "conditions": "postemergence, 0 to 100 scale (0 no effect, 100 complete control)", "summary_of_the_method": "as §1"}, "[12]": {"tested_on": "wheat (Triticum aestivum)", "test": "Test A postemergence", "conditions": "postemergence, 0 to 100 scale (0 no effect, 100 complete control)", "summary_of_the_method": "as §1"}, "[13]": {"tested_on": "ragweed (common ragweed, Ambrosia elatior)", "test": "Test A postemergence", "conditions": "postemergence, 0 to 100 scale (0 no effect, 100 complete control)", "summary_of_the_method": "as §1"}, "[14]": {"tested_on": "Galium (catchweed bedstraw, Galium aparine)", "test": "Test A postemergence", "conditions": "postemergence, 0 to 100 scale (0 no effect, 100 complete control)", "summary_of_the_method": "as §1"}, "corn (Zea mays)": {"tested_on": "corn (Zea mays)", "test": "Test A postemergence", "conditions": "postemergence, 0 to 100 scale (0 no effect, 100 complete control)", "summary_of_the_method": "as §1"}, "[15]": {"tested_on": "giant foxtail (Setaria faberii)", "test": "Test A postemergence", "conditions": "postemergence, 0 to 100 scale (0 no effect, 100 complete control)", "summary_of_the_method": "as §1"}, "[16]": {"tested_on": "blackgrass (Alopecurus myosuroides)", "test": "Test A postemergence", "conditions": "postemergence, 0 to 100 scale (0 no effect, 100 complete control)", "summary_of_the_method": "as §1"}, "[17]": {"tested_on": "pigweed (Amaranthus retroflexus)", "test": "Test A postemergence", "conditions": "postemergence, 0 to 100 scale (0 no effect, 100 complete control)", "summary_of_the_method": "as §1"}, "[18]": {"tested_on": "ryegrass, Italian (Italian ryegrass, Lolium multiflorum)", "test": "Test A postemergence", "conditions": "postemergence, 0 to 100 scale (0 no effect, 100 complete control)", "summary_of_the_method": "as §1"}, "[19]": {"conditions": "125 g ai/ha, Preemergence, visual injury after approximately 10 d, 0 to 100 scale where 0 is no effect and 100 is complete control"}, "[20]": {"conditions": "500 g ai/ha, preemergence, 0 to 100 scale, 0 = no effect, 100 = complete control"}, "[21]": {"conditions": "125 g ai/ha, visual rating after approx. 10 d"}, "[22]": {"conditions": "500 g ai/ha, visual injury, approx. 10 d"}},
  "data": [
    {"smiles": "Cc1ccc(C2CN(C)C(=O)C2C(=O)Nc2ccccc2S(C)(=O)=O)cc1", "note": "(stereo not drawn) [Compound 663]", "values": [
      {"measurement": "Plant response rating, Barnyardgrass", "setting": "[1]; [19]", "value": 90},
      {"measurement": "Plant response rating, Barnyardgrass", "setting": "[1]; [20]", "value": 100},
      {"measurement": "Plant response rating, Kochia", "setting": "Kochia (Kochia scoparia) [2]; [19]", "value": 70},
      {"measurement": "Plant response rating, Kochia", "setting": "Kochia (Kochia scoparia) [2]; [20]", "value": 80},
      {"measurement": "Plant response rating, Ragweed", "setting": "[3]; [19]", "value": 30},
      {"measurement": "Plant response rating, Ragweed", "setting": "[3]; [20]", "value": 70},
      {"measurement": "Plant response rating, Foxtail, Giant", "setting": "[4]; [19]", "value": 90},
      {"measurement": "Plant response rating, Foxtail, Giant", "setting": "[4]; [20]", "value": 100},
      {"measurement": "Plant response rating, Pigweed", "setting": "[5]; [19]", "value": 30},
      {"measurement": "Plant response rating, Pigweed", "setting": "[5]; [20]", "value": 70},
      {"measurement": "Plant response rating, Ryegrass, Italian", "setting": "[6]; [19]", "value": 30},
      {"measurement": "Plant response rating, Ryegrass, Italian", "setting": "[6]; [20]", "value": 90},
      {"measurement": "Plant response rating, Barnyardgrass", "setting": "[7]", "value": 70},
      {"measurement": "Plant response rating, Sedge, Umbrella", "setting": "[8]", "value": 0},
      {"measurement": "Plant response rating, Ducksalad", "setting": "[9]", "value": 98},
      {"measurement": "Plant response rating, Rice", "setting": "rice (Oryra sativa)", "value": 0},
      {"measurement": "Plant response rating, Barnyardgrass", "setting": "[10]; [21]", "value": 90},
      {"measurement": "Plant response rating, Barnyardgrass", "setting": "[10]; [22]", "value": 90},
      {"measurement": "Plant response rating, Kochia", "setting": "Kochia (Kochia scoparia) [11]; [21]", "value": 20},
      {"measurement": "Plant response rating, Kochia", "setting": "Kochia (Kochia scoparia) [11]; [22]", "value": 60},
      {"measurement": "Plant response rating, Wheat", "setting": "[12]; [21]", "value": 50},
      {"measurement": "Plant response rating, Wheat", "setting": "[12]; [22]", "value": 70},
      {"measurement": "Plant response rating, Ragweed", "setting": "[13]; [21]", "value": 30},
      {"measurement": "Plant response rating, Ragweed", "setting": "[13]; [22]", "value": 40},
      {"measurement": "Plant response rating, Galium", "setting": "[14]; [21]", "value": 50},
      {"measurement": "Plant response rating, Galium", "setting": "[14]; [22]", "value": 60},
      {"measurement": "Plant response rating, Corn", "setting": "corn (Zea mays); [21]", "value": 30},
      {"measurement": "Plant response rating, Corn", "setting": "corn (Zea mays); [22]", "value": 80},
      {"measurement": "Plant response rating, Foxtail, Giant", "setting": "[15]; [21]", "value": 90},
      {"measurement": "Plant response rating, Foxtail, Giant", "setting": "[15]; [22]", "value": 90},
      {"measurement": "Plant response rating, Blackgrass", "setting": "[16]; [21]", "value": 60},
      {"measurement": "Plant response rating, Blackgrass", "setting": "[16]; [22]", "value": 70},
      {"measurement": "Plant response rating, Pigweed", "setting": "[17]; [21]", "value": 0},
      {"measurement": "Plant response rating, Pigweed", "setting": "[17]; [22]", "value": 20},
      {"measurement": "Plant response rating, Ryegrass, Italian", "setting": "[18]; [21]", "value": 40},
      {"measurement": "Plant response rating, Ryegrass, Italian", "setting": "[18]; [22]", "value": 70}
    ]}
  ]
}
